Results as given in patent publication US7118895B2, “Process for producing aglycon by using diglycosidase and flavor-improved food containing the aglycon and converting agent to be used in the process” (Amano Enzyme Inc., priority 2000, dated 2006).

Experiments:
[1] = tested on: Diglycosidase derived from A. fumigatus; assay: Reactivity toward various isoflavone glycosides (HPLC); assay type: biochemical, Aspergillus fumigatus; parameters: unit not given here; settings: 55 °C, pH 4.0
Procedure, shortened: (§1)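 Enzymes at 0.75 AU/mL in pH 4.0 acetate buffer were reacted at 55° C with individual isoflavone glycosides (substrate stock 2 mM in methanol) in 20 mM acetate pH 4.0. Aglycone release followed at 0, 1, 3 and 6 h: ethanol-quenched, ODS HPLC with UV 260 nm, quantified against calibration curves.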

[2] = tested on: β-Glucosidase derived from A. niger; assay: as above; assay type: biochemical, Aspergillus niger; parameters: glucoside / aglycon: unit not given here; settings: 55 °C, pH 4.0
Procedure, shortened: as §1

[3] = tested on: Crude diglycosidase; assay: Examination of substrate concentration in the conversion into isoflavone aglycons by diglycosidase using soybean materials; assay type: biochemical, Penicillium multicolor IAM7153;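 note: percent of the isoflavone family total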
Procedure, shortened: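 Soybean materials (roasted soy flour, soymilk, defatted soybean, concentrated soy protein) at 2–30% (w/v) in 20 mM acetate pH 4.0 were reacted with crude diglycosidase at 55° C with shaking; enzyme solution added was 1.88 AU/mL. Samples taken at 0, 1, 3 and 6 h were ethanol-extracted and analyzed by HPLC.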

aglycon ([1]; Reaction time 0 h): 0
glucoside ([1]; Reaction time 0 h): 100
aglycon ([1]; Reaction time 1 h): 2.4
glucoside ([1]; Reaction time 1 h): 97.6
aglycon ([1]; Reaction time 3 h): 5.2
glucoside ([1]; Reaction time 3 h): 94.8
aglycon ([1]; Reaction time 6 h): 8.2
glucoside ([1]; Reaction time 6 h): 91.8
aglycon ([2]; Reaction time 0 h): 0
glucoside ([2]; Reaction time 0 h): 100
aglycon ([2]; Reaction time 1 h): 3.1
glucoside ([2]; Reaction time 1 h): 96.9
aglycon ([2]; Reaction time 3 h): 7
glucoside ([2]; Reaction time 3 h): 93
aglycon ([2]; Reaction time 6 h): 12.1
glucoside ([2]; Reaction time 6 h): 87.9
Decomposition efficiency: ratio of each glycoside/aglycon within its isoflavone family ([3]; concentrated soybean protein, substrate concentration 2%, heat treatment of enzyme no, reaction time 0 h): not detected
Decomposition efficiency: ratio of each glycoside/aglycon within its isoflavone family ([3]; concentrated soybean protein, substrate concentration 2%, heat treatment of enzyme no, reaction time 1 h): not detected
Decomposition efficiency: ratio of each glycoside/aglycon within its isoflavone family ([3]; concentrated soybean protein, substrate concentration 2%, heat treatment of enzyme no, reaction time 3 h): not detected
Decomposition efficiency: ratio of each glycoside/aglycon within its isoflavone family ([3]; concentrated soybean protein, substrate concentration 2%, heat treatment of enzyme no, reaction time 6 h): not detected
Decomposition efficiency: ratio of each glycoside/aglycon within its isoflavone family ([3]; concentrated soybean protein, substrate concentration 2%, heat treatment of enzyme yes, reaction time 6 h): not detected
Decomposition efficiency: ratio of each glycoside/aglycon within its isoflavone family ([3]; concentrated soybean protein, substrate concentration 5%, heat treatment of enzyme no, reaction time 0 h): not detected
Decomposition efficiency: ratio of each glycoside/aglycon within its isoflavone family ([3]; concentrated soybean protein, substrate concentration 5%, heat treatment of enzyme no, reaction time 1 h): not detected
Decomposition efficiency: ratio of each glycoside/aglycon within its isoflavone family ([3]; concentrated soybean protein, substrate concentration 5%, heat treatment of enzyme no, reaction time 3 h): not detected
Decomposition efficiency: ratio of each glycoside/aglycon within its isoflavone family ([3]; concentrated soybean protein, substrate concentration 5%, heat treatment of enzyme no, reaction time 6 h): not detected
Decomposition efficiency: ratio of each glycoside/aglycon within its isoflavone family ([3]; concentrated soybean protein, substrate concentration 5%, heat treatment of enzyme yes, reaction time 6 h): not detected
Decomposition efficiency: ratio of each glycoside/aglycon within its isoflavone family ([3]; concentrated soybean protein, substrate concentration 10%, heat treatment of enzyme no, reaction time 0 h): not detected
Decomposition efficiency: ratio of each glycoside/aglycon within its isoflavone family ([3]; concentrated soybean protein, substrate concentration 10%, heat treatment of enzyme no, reaction time 1 h): not detected
Decomposition efficiency: ratio of each glycoside/aglycon within its isoflavone family ([3]; concentrated soybean protein, substrate concentration 10%, heat treatment of enzyme no, reaction time 3 h): not detected
Decomposition efficiency: ratio of each glycoside/aglycon within its isoflavone family ([3]; concentrated soybean protein, substrate concentration 10%, heat treatment of enzyme no, reaction time 6 h): not detected
Decomposition efficiency: ratio of each glycoside/aglycon within its isoflavone family ([3]; concentrated soybean protein, substrate concentration 10%, heat treatment of enzyme yes, reaction time 6 h): not detected
Decomposition efficiency: ratio of each glycoside/aglycon within its isoflavone family ([3]; concentrated soybean protein, substrate concentration 20%, heat treatment of enzyme no, reaction time 0 h): not detected
Decomposition efficiency: ratio of each glycoside/aglycon within its isoflavone family ([3]; concentrated soybean protein, substrate concentration 20%, heat treatment of enzyme no, reaction time 1 h): not detected
Decomposition efficiency: ratio of each glycoside/aglycon within its isoflavone family ([3]; concentrated soybean protein, substrate concentration 20%, heat treatment of enzyme no, reaction time 3 h): not detected
Decomposition efficiency: ratio of each glycoside/aglycon within its isoflavone family ([3]; concentrated soybean protein, substrate concentration 20%, heat treatment of enzyme no, reaction time 6 h): not detected
Decomposition efficiency: ratio of each glycoside/aglycon within its isoflavone family ([3]; concentrated soybean protein, substrate concentration 20%, heat treatment of enzyme yes, reaction time 6 h): not detected
Decomposition efficiency: ratio of each glycoside/aglycon within its isoflavone family ([3]; concentrated soybean protein, substrate concentration 30%, heat treatment of enzyme no, reaction time 0 h): not detected
Decomposition efficiency: ratio of each glycoside/aglycon within its isoflavone family ([3]; concentrated soybean protein, substrate concentration 30%, heat treatment of enzyme no, reaction time 1 h): not detected
Decomposition efficiency: ratio of each glycoside/aglycon within its isoflavone family ([3]; concentrated soybean protein, substrate concentration 30%, heat treatment of enzyme no, reaction time 3 h): not detected
Decomposition efficiency: ratio of each glycoside/aglycon within its isoflavone family ([3]; concentrated soybean protein, substrate concentration 30%, heat treatment of enzyme no, reaction time 6 h): not detected
Decomposition efficiency: ratio of each glycoside/aglycon within its isoflavone family ([3]; concentrated soybean protein, substrate concentration 30%, heat treatment of enzyme yes, reaction time 6 h): not detected
Decomposition efficiency: ratio of each glycoside/aglycon within its isoflavone family ([3]; roasted soy flour, substrate concentration 2%, heat treatment of enzyme no, reaction time 0 h): not detected
Decomposition efficiency: ratio of each glycoside/aglycon within its isoflavone family ([3]; roasted soy flour, substrate concentration 2%, heat treatment of enzyme no, reaction time 1 h): not detected
Decomposition efficiency: ratio of each glycoside/aglycon within its isoflavone family ([3]; roasted soy flour, substrate concentration 2%, heat treatment of enzyme no, reaction time 3 h): not detected
Decomposition efficiency: ratio of each glycoside/aglycon within its isoflavone family ([3]; roasted soy flour, substrate concentration 2%, heat treatment of enzyme no, reaction time 6 h): not detected
Decomposition efficiency: ratio of each glycoside/aglycon within its isoflavone family ([3]; roasted soy flour, substrate concentration 2%, heat treatment of enzyme yes, reaction time 6 h): not detected
Decomposition efficiency: ratio of each glycoside/aglycon within its isoflavone family ([3]; roasted soy flour, substrate concentration 5%, heat treatment of enzyme no, reaction time 0 h): not detected
Decomposition efficiency: ratio of each glycoside/aglycon within its isoflavone family ([3]; roasted soy flour, substrate concentration 5%, heat treatment of enzyme no, reaction time 1 h): not detected
Decomposition efficiency: ratio of each glycoside/aglycon within its isoflavone family ([3]; roasted soy flour, substrate concentration 5%, heat treatment of enzyme no, reaction time 3 h): not detected
Decomposition efficiency: ratio of each glycoside/aglycon within its isoflavone family ([3]; roasted soy flour, substrate concentration 5%, heat treatment of enzyme no, reaction time 6 h): not detected
Decomposition efficiency: ratio of each glycoside/aglycon within its isoflavone family ([3]; roasted soy flour, substrate concentration 5%, heat treatment of enzyme yes, reaction time 6 h): not detected
Decomposition efficiency: ratio of each glycoside/aglycon within its isoflavone family ([3]; roasted soy flour, substrate concentration 10%, heat treatment of enzyme no, reaction time 0 h): not detected
Decomposition efficiency: ratio of each glycoside/aglycon within its isoflavone family ([3]; roasted soy flour, substrate concentration 10%, heat treatment of enzyme no, reaction time 1 h): not detected
Structure (SMILES): O=C(O)CC(=O)OC[C@H]1O[C@@H](Oc2cc(O)c3c(=O)c(-c4ccc(O)cc4)coc3c2)[C@H](O)[C@@H](O)[C@@H]1O [malonylgenistin, 6″-O-malonylgenistin]
